Measurements taken from patent publication US20040058940A1, “Pharmaceutical formulation comprising thienopyrimidines and antithrombotics, calcium antagonists, prostaglandins or prostaglandin derivatives (2)” (priority 2000, published 2004).

SMILES | melting point [°C]
COc1ccc(CNc2nc(CCC(=O)O)nc3sc4ccccc4c23)cc1Cl [Example 2, 3-[4-(3-chloro-4-methoxybenzylamino)-benzothieno-[2,3-d]-pyrimidin-2-yl]propionic acid] | 218
COC(=O)c1ccc(-c2nc(NCc3ccc(OC)c(Cl)c3)c3c(n2)sc2ccccc23)cc1 [Example 3, methyl 4-[4-(3-chloro-4-methoxybenzylamino)-[1]-benzothieno-[2,3-d]-pyrimidin-2-yl]benzoate] | 203 to 204
